These results are taken from patent US20210338658A1, “MACROLIDE COMPOUNDS AND THEIR USE IN LIVER STAGE MALARIA AND RELATED DISEASE” (The Johns Hopkins University, priority 2014, published 2021).

“Also recorded” adds a separate entry of the source.

The conditions of data set [1]: over 5,000 humans, single day dosing; cited from earlier work.
In data set [2] the test system is P. berghei sporozoites. The data set is described as follows: In vivo liver stage assay (mouse liver parasite load by real-time PCR). As to conditions: for effect on parasite growth in mice (in words): dose not given; for inhibitory effect on parasite proliferation in mice (in words): two doses 24 hours apart; for side effects in the mice: after two doses. On the procedure:
Approximately 10,000 sporozoites were inoculated by tail vein injection and mice were sacrificed 40 hours later, livers were harvested, placed in RNAzol and parasite levels determined by realtime PCR from cDNA from reverse transcription. Relative fluorescent units were compared to control to determine percent inhibition. Cethromycin (CET) was administered only once while the other drugs were given twice 24 hours apart from each dose. […] Error is standard error of mean of three mice with real time PCR performed in duplicate for transcript levels in each mouse.
Mice were kept in Johns Hopkins Bloomberg School of Public Health mouse facility according to the ACUC animal protocol number MO09H401. Six week old C57BL/6 mice weighing about 20-22 g were divided into groups of three. 12,000 P. berghei sporozoites in a 200 μL volume were injected into mice through tail veins. Two hours after injection, different dilutions of drugs in 100-200 μL volumes were delivered to mice by oral gavage using a plastic feeding tube. A second dose of drugs was given 24 hours after the first one to the mice that were on a daily dosing regimen. Approximately 40 hours post-infection, mice infected with P. berghei sporozoites were anesthetized by inhaling Metofane® and sacrificed for harvesting whole livers. Each mouse liver was immediately put into 10 mL of Trizol® Reagent and fully homogenized. After RNA isolation, the RNA was diluted to 100 ng/mL for reverse-transcription reactions. For a 30 μL reaction, the components were set up as: 3.5 μL of nuclease-free water, 3 μL of 10× Buffer II and 10 mM dNTPs, 6 μL of MgCl2 solution, 1.5 μL of 50 μM Random Hexamers, RNase Inhibitor and MuLV Reverse Transcriptase, 10 μL of RNA sample. cDNA products were stored at −20° C. For a 10 μL real-time quantitative PCR, the components were set up as: 0.2 μL of 10 μM forward and reverse primer 18s P. berghei, 5 μL of 2×SYBR Green PCR Master Mix, 1.6 μL of nuclease-free water, and 3 μL of cDNA sample. All test subjects were done in duplicates including positive and negative controls. When real-time PCR was finished, all data were baselined and normalized to the housekeeping gene before further analysis. The specific sequences of primers (The Core DNA Analysis Facility—JHU, Baltimore, Md.) were: 5′-[…]-3′ (SEQ ID NO: 1) and 5′-[…]-3′(SEQ ID NO: 2) for P. berghei ANKA 18s and 5′-[…]1TAGC-3′ (SEQ ID NO: 3) and 5′-[…]-3′ (SEQ ID NO: 4) for mouse HPRT.
For orientation: In qPCR the cycle at which signal appears reflects the starting amount.

For data set [3], the system named is P. berghei sporozoites. The data set is described as follows: In vitro malaria liver stage assay (infected Hepa1-6 cells counted by anti-HSP70 immunofluorescence). It is filed as cell-based, Plasmodium berghei. As to conditions: for reduction of parasite multiplication / growth in vitro: 10 μM. The procedure:
3A. […] Error is standard error of the mean of duplicate wells performed in biologic replicate. 3B. […] 50,000 Hepa1-6 cells were seeded in each well 24 hours prior to infection with 50,000 P. berghei sporozoites. The 2E6 anti-HSP70 antibody was used for immunofluorescent numeration of infected cells.
Drugs were purchased from either Sigma or Ambinter. In each chamber of 8-well LabTek tissue culture slides, 50,000 mouse hepatoma cells, Hepa1-6, were seeded one day before infection. Cells were normally cultured in DMEM supplemented with 10% FBS, 1× L-glutamine and 1× Pen-Strep at 37° C. and 5% CO2. Once incubated with P. berghei sporozoites, the culture medium supplement was changed to 2.5% FBS, 1× L-glutamine and 2× Pen-Strep. Before treatment with drugs, the cells were washed four times with DMEM containing 10× Pen-Strep and 5 ug/mL fungicide. After 24 hours, fresh culture medium containing drugs was added to each chamber. Approximately 42 hours post-infection, the growth medium was removed and 100% cold methanol was added for 15 minutes to fix the cells. After washing with sterile PBS, cells were incubated in PBS with 5% FBS for blocking. Then 2E6 anti-HSP70 antibody was diluted to 10 μg/mL in PBS with 5% FBS and added in a 200 μL volume to cells. One hour later, cells were washed with PBS and incubated with 10 μg/mL Alexafour 594 anti-mouse secondary antibody. In order to visualize hepatocytes, nuclear counterstain DAPI was incubated with cells for 5 minutes and then washed off. The plastic chambers and silicone gasket were removed and slide was fully dried before mounted and sealed with cover slides. When preparation was complete, slide was taken to the fluorescence microscope for examination. Representative areas were randomly selected from each chamber and the numbers of infected cells were counted for a similar number of microscopic fields. The level of inhibition was determined by comparing the average of each chamber containing treated cells with that of the controls.
Five compounds were procured while cethromycin was synthesized. Cethromycin was directly synthesized from erythromycin by substituting the cladinose sugar at C3 with a keto-group, attaching a cyclic carbamate group at C11-C12, and tethering the quinoline moiety to the C6 alcohol. We used the in vitro P. berghei ANKA model on mouse hepatoma cells, Hepa1-6. […] Quinoline, erythromycin and their combination were also tested to investigate the role the quinoline plays in the antimalarial activity of cethromycin. […] Due to limited synthesized amounts of cethromycin, only one dose was given to mice while other drugs and compounds were administered twice.

For the next data set, the system named is Plasmodium. As to conditions: reference molecules of the training set; read-out: liver stage inhibition; cited from earlier work.

Usually inhibition stands for the change of the read-out against control, counted positive when it falls. On to `CC[C@H]1OC(=O)[C@H](C)C(=O)[C@H](C)[C@@H](O[C@@H]2O[C@H](C)C[C@H](N(C)C)[C@H]2O)[C@@](C)(OC/C=C/c2cnc3ccccc3c2)C[C@@H](C)C(=O)[C@H](C)[C@H]2NC(=O)O[C@@]21C` [Cethromycin, (1R,2R,4R,6S,7R,8R,10R,13R,14S)-7-[(2S,3R,4S,6R)-4-(dimethylamino)-3-hydroxy-6-methyloxan-2-yl]oxy-13-ethyl-2,4,6,8,10,14-hexamethyl-6-[(E)-3-quinolin-3-ylprop-2-enoxy]-12,15-dioxa-17-azabicyclo[12.3.0]heptadecane-3,9,11,16-tetrone], for which the safety in humans entry in data set [1] is “used safely”. Moreover, in the data set on P. berghei sporozoites [2] (12 mg/kg, oral gavage), the “inhibition of liver parasites in mice” value was “about 16%”. For the same compound, the “reduction of parasite load in mouse liver” value in the data set with P. berghei sporozoites [2] (50 mg/kg, oral gavage, one dose, liver 40 hours post-infection) was 60%. In addition, the “effect on parasite load in mice (in words)” value in the data set with P. berghei sporozoites [2] (cethromycin 12 mg/kg) is given as “only partially effective”. Further, the “effect on parasite growth in mice (in words)” value (from here on “effect on parasite growth”) in the data set with P. berghei sporozoites [2] (oral gavage) is given as “active”. Further, in the data set with P. berghei sporozoites [3] (20 μM, Hepa1-6 cells), the “inhibition of liver stage malaria in vitro (reduction of parasite growth)” value was 54%. For the same compound, the “parasite inhibition in vitro (in words)” value with P. berghei sporozoites [3] (Hepa1-6 cells) is given as “measurable inhibitory effect; also recorded: active”. In the data set with P. berghei sporozoites [3] (Plasmodium berghei, Hepa1-6, 20 μM, Hepa1-6 cells, read-out: inhibition of liver stage malaria in vitro (reduction of parasite growth)), the inhibition at 20 µM amounted to 52%.
Turning to `O=C(COC(=O)c1cccnc1SCC(=O)Nc1cc(S(=O)(=O)N2CCOCC2)ccc1Cl)Nc1cc(S(=O)(=O)N2CCOCC2)ccc1Cl` [T0507-9950, [2-(2-chloro-5-morpholin-4-ylsulfonylanilino)-2-oxoethyl] 2-[2-(2-chloro-5-morpholin-4-ylsulfonylanilino)-2-oxoethyl]sulfanylpyridine-3-carboxylate], in the data set with P. berghei sporozoites [2] (50 mg/kg), the “inhibitory effect on parasite proliferation in mice (in words)” value (“inhibitory effect” below) is on record as “significant inhibitory effect” and the “side effects in the mice” value is “without causing any notable side effects”. Moreover, in the data set on P. berghei sporozoites [3] (Hepa1-6 cells), the “parasite inhibition in vitro (in words)” value is given as “measurable inhibitory effect”.
As for `O=C(/C=C/c1ccc(Cl)cc1Cl)Nc1cc(S(=O)(=O)N2CCCCC2)ccc1Cl` [T0510-7064, (E)-N-(2-chloro-5-piperidin-1-ylsulfonylphenyl)-3-(2,4-dichlorophenyl)prop-2-enamide], in the data set with P. berghei sporozoites [2] (50 mg/kg), the “inhibitory effect” value is listed as “significant inhibitory effect” and the “side effects in the mice” value is “without causing any notable side effects”. Moreover, in the data set on P. berghei sporozoites [3] (Hepa1-6 cells), the “reduction of parasite multiplication / growth in vitro” value is listed as 54% and the “parasite inhibition in vitro (in words)” value was “measurable inhibitory effect”.
On to `CCN(CC)S(=O)(=O)c1cccc(-c2nnc(SC(C)C(=O)Nc3ccc(C)c(S(=O)(=O)N(CC)CC)c3)n2Cc2ccccc2)c1` (stereo not drawn) [T5531873, 2-[[4-benzyl-5-[3-(diethylsulfamoyl)phenyl]-1,2,4-triazol-3-yl]sulfanyl]-N-[3-(diethylsulfamoyl)-4-methylphenyl]propanamide], for which, in the data set on P. berghei sporozoites [2] (50 mg/kg), the “inhibitory effect” value was “significant inhibitory effect” and the “side effects in the mice” value was “without causing any notable side effects”. In the data set with P. berghei sporozoites [3] (Hepa1-6 cells), the “reduction of parasite multiplication / growth in vitro” value is “over 95%” and the “parasite inhibition in vitro (in words)” value is “measurable inhibitory effect”. Further, the “inhibition of liver stage malaria in vitro” value with P. berghei sporozoites [3] (FIG. 3, concentration not given) is given as around 95%.
For the compound `CC[C@H]1OC(=O)[C@H](C)[C@@H](O[C@H]2C[C@@](C)(OC)[C@@H](O)[C@H](C)O2)[C@H](C)[C@@H](O[C@@H]2O[C@H](C)C[C@H](N(C)C)[C@H]2O)[C@](C)(O)C[C@@H](C)C(=O)[C@H](C)[C@@H](O)[C@]1(C)O` [erythromycin], the “effect on parasite growth” value with P. berghei sporozoites [2] (oral gavage) is recorded as “only marginal inhibitory effect; also recorded: no activity”. The “parasite inhibition in vitro (in words)” value in the data set on P. berghei sporozoites [3] (Hepa1-6 cells) is “Neither quinoline, nor erythromycin, nor their combination showed any parasite inhibition; also recorded: inactive; also recorded: no activity”.
For the compound `CC[C@@]1([C@@H]2O[C@@H]([C@H]3O[C@@](O)(CO)[C@H](C)C[C@@H]3C)C[C@@H]2C)CC[C@H]([C@]2(C)CC[C@]3(C[C@H](O)[C@@H](C)[C@@H]([C@@H](C)[C@@H](OC)[C@H](C)C(=O)O)O3)O2)O1` [monensin], the IC50 in the data set on Plasmodium is 1 pM.
As to `COc1cc(NC(C)CCCN)c2ncccc2c1` (stereo not drawn) [primaquine], the “inhibition of liver parasites in mice” value with P. berghei sporozoites [2] (primaquine 15 mg/kg, oral gavage) was 83%.
As to `c1ccc2ncccc2c1` [quinoline], the “effect on parasite growth” value was “only marginal inhibitory effect; also recorded: no activity” with P. berghei sporozoites [2] (oral gavage) and “only marginal effect” with P. berghei sporozoites [2] (oral gavage, listed as quinolone). Moreover, in the data set with P. berghei sporozoites [3] (Hepa1-6 cells), the “parasite inhibition in vitro (in words)” value is “Neither quinoline, nor erythromycin, nor their combination showed any parasite inhibition; also recorded: inactive; also recorded: no activity”.
